Experiments:
NRF2/KEAP1 in MEFs = assay: NQO1 and NRF2 levels in mouse embryonic fibroblasts (MEFs), western blot; assay type: cell-based; conditions: wild-type MEFs; for Accumulation of total NRF2 protein: 5 hr exposure
Description: Mouse embryonic fibroblasts (MEFs) from wild-type (WT), NRF2-knockout (NRF2-KO) or KEAP1-knockout (KEAP1-KO) mice, were cultured in plastic dishes (Invitrogen) coated for 30 min with 0.1% (w/v) gelatin before use. The cell culture medium was Iscoves Modified Dulbecco's Medium (with L-glutamine) supplemented with human recombinant epidermal growth factor (10 ng/mL), 1× insulin/transferrin/selenium, and 10% (v/v) heat-inactivated FBS, all from Invitrogen. Cells were maintained at 5% CO2 in air at 37° C. For experiments, cells (250,000 per well) were grown for 24 hr on 6-well plates, and then treated with solvent control (0.1% DMSO, v/v) or compounds for either 5 hr or 24 hr. For western blot analysis, cells were washed twice with ice-cold phosphate buffered saline (PBS) and lysed in 150 μl of RIPA buffer (50 mM Tris-Cl pH 7.5, 150 mM NaCl, 0.5% sodium deoxycholate, 1% NP-40, 0.1% SDS and 1 mM EDTA), containing 1 protease inhibitor cocktail tablet (Roche) per 10 ml of buffer. Cell debris were removed by centrifugation at 16,300×g for […] at 4° C., and protein concentrations were determined by the BCA assay (Thermo). Proteins were resolved by SDS/PAGE, transferred to immobilon-P membranes, and probed with specific antibodies against NQO1 (1:1000) or NRF2 (1:1000). Equal loading was confirmed by probing the blots with an antibody against β-actin (mouse monoclonal, 1:10000), from Sigma, Dorset, United Kingdom.
For nuclear-cytoplasmic separation, WT MEFs (500,000 per dish) were grown for 24 hr on 6-cm plates, and then treated with solvent control (0.1% DMSO, v/v) or 0.5 μM MIND4-17. At the end of each treatment time, cells were placed on ice and washed twice with ice-cold PBS and subsequently lysed in buffer A [10 mM KCl, 5 mM MgCl2, 50 mM Tris-HCl (pH 7.5), 0.5% Nonidet P-40 (Roche), 1 mM dithioretitol (DTT) (Sigma), containing one protease inhibitor tablet and one phosphatase inhibitor tablet (both from Roche) per each 10 ml of buffer]. The lysates were subjected to centrifugation (Spectrafuge 24D, Labnet) at 1,000×g for 5 min at 4° C. The supernatant (cytoplasmic fraction) was transferred to a fresh Eppendorf tube. The pellet (nuclear fraction) was washed three times in buffer A before being dissolved in buffer B [2% SDS, 150 mM NaCl, 65 mM Tris-HCl (pH 8.0)] and sonicated for 30 sec. Finally, the lysates were subjected to western blot analysis. The blots were probed with antibodies against GAPDH (rabbit polyclonal, 1:5000) and Lamin A/C (rabbit polyclonal, 1:1000, Gene Tex, Calif., United States of America) to confirm fraction purity and equal protein loading.

[1] = Detection of MIND4 in mouse brain after escalated i.p. dosing; assay type: in vivo; conditions: brain cortex, intraperitoneal, i.p. daily, escalated 50 to 275 mg/kg, 2 hours after last dose, HPLC, read-out: Concentration in wild type mouse cortices
Description: To evaluate whether MIND4 would also confer an anti-inflammatory effect in vivo, pilot studies were performed to assess brain permeability of MIND4 in mice (FIG. 7A-B). MIND4 was solubilized at 5 mg/ml in 7.5% Cremophor EL (BASF)/2.375% Ethanol in PBS, Wild type mice (N=3) were subjected to MIND4 treatment at escalated dosing from 50 mg/kg up to a final dose of 275 mg/kg administered daily by intraperitoneal (i.p.) injection. […] Mice were sacrificed 2 hours following the last drug administration and isolated cortical samples were subjected to HPLC analysis.
Specifically, frozen mouse cortical tissues were extracted in ice cold methanol containing 0.4% acetic acid (approximately 1:6 ratios), probe sonicated for 5 sec and centrifuged at 22000×g for 20 min at 4 C. The supernatant was dried under centrifugation and vacuum and reconstituted with running buffer. Reverse phase-HPLC/ECA separation was accomplished on shisedo MG240 C18 HPLC column (4.6×250 mm, 3μ particle size), flow rate 1 ml/min, using 50% methanol in 0.1M sodium phosphate buffer pH 3, isocratic elution was performed for 20 min using 4 channel electrochemical array. Levels of MIND4 in the brain samples were determined using integrated peak areas and the standard curves

[2] = test system: α-tubulin (lysine K40) acetylation in ST14A cells; assay: α-Tubulin acetylation in differentiated ST14A cells; assay type: cell-based, rat; conditions: mutant HD and wild type ST14A cells, 6 hours
Description: Compound bioactivity was tested in the rat embryonic striatal cell lines ST14A, which stably express either a mutant expanded repeat (128Q) or wild type (26Q) 546 amino acid huntingtin (HTT) fragment (a generous gift of E. Cattaneo) (Ehrlich et al., 2001) ST14A cells were propagated at 33° C. in the presence of serum. To induce neuronal differentiation, cells were serum deprived and cultured at 37° C. in the presence of N2 supplement. […]
This increased α-tubulin acetylation in compound-treated cells was consistent with the activity of MIND4 as a SIRT2 inhibitor.

Structure (SMILES)	NRF2 levels in nuclear and cytoplasmic fractions (NRF2/KEAP1 in MEFs; 0.5 μM, from 30 min, elevated for at least 5 hr)	Accumulation of total NRF2 protein (NRF2/KEAP1 in MEFs)	concentration at 2 h [1] [nM]	Acetylation of α-tubulin (lysine K40) [2]
O=[N+]([O-])c1ccc(Sc2nnc(COc3ccccc3)n2-c2ccccc2)nc1 [MIND4-17]	increase of NRF2 levels was detected	readily detectable	–	–
O=[N+]([O-])c1ccc(Sc2nnc(COc3ccccc3)n2-c2ccccc2)c2ncccc12 [MIND4, 5-nitro-8-{[5-(phenoxymethyl)-4-phenyl-4H-1,2,4-triazol-3-yl]thio}quinoline]	–	to much lesser extent	~500	dose dependent increase in acetylation of α-tubulin

— patent US9737525B2, “Small molecule activators of NRF2 pathway” (The General Hospital Corporation, priority 2013, dated 2017)
